Measurements taken from ChEMBL document CHEMBL1201862, “PubChem BioAssay data set” (2004).
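All cell lines were grown in 96-well plates and treated with compound for 48 hours. The concentration for 50% growth inhibition is given as GI50.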 Calls of active or inactive are those of the source. Rule as the data show it: active = GI50 up to about 1.1 µM and inactive = higher.

How the values were obtained:
Assay in all cases: inhibition of tumour cell growth, NCI panel, 48 h
MCF7 = test system: MCF7
HCT-15 = test system: HCT-15
RXF 393 = test system: RXF 393
SK-MEL-5 = test system: SK-MEL-5
HCC 2998 = test system: HCC 2998
UACC-257 = test system: UACC-257
DU-145 = test system: DU-145
M14 = test system: M14
SF-295 = test system: SF-295
HCT-116 = test system: HCT-116
OVCAR-8 = test system: OVCAR-8
ACHN = test system: ACHN
SF-268 = test system: SF-268
PC-3 = test system: PC-3
NCI-H23 = test system: NCI-H23
MDA-N = test system: MDA-N
SNB-75 = test system: SNB-75
SF-539 = test system: SF-539
SR = test system: SR
SK-MEL-28 = test system: SK-MEL-28

Row | SMILES | GI50 (MCF7) | GI50 (HCT-15) | GI50 (RXF 393) | GI50 (SK-MEL-5) | GI50 (HCC 2998) | GI50 (UACC-257) | GI50 (DU-145) | GI50 (M14) | GI50 (SF-295) | GI50 (HCT-116) | GI50 (OVCAR-8) | GI50 (ACHN) | GI50 (SF-268) | GI50 (PC-3) | GI50 (NCI-H23) | GI50 (MDA-N) | GI50 (SNB-75) | GI50 (SF-539) | GI50 (SR) | GI50 (SK-MEL-28)
1 | COc1nncc2[nH]c(-c3ccccc3)cc12 | 49.7 µM (inactive) | 53 µM | > 100 µM (inactive) | 67.8 µM (inactive) | > 100 µM (inactive) | 71.1 µM (inactive) | 90.4 µM (inactive) | 86.7 µM (inactive) | 82.4 µM (inactive) | 50.8 µM (inactive) | 92.5 µM (inactive) | 54 µM (inactive) | 65.8 µM (inactive) | 44.7 µM (inactive) | > 100 µM (inactive) | 62.4 µM (inactive) | 58.1 µM (inactive) | > 100 µM (inactive) | 37.5 µM (inactive) | –
2 | O=C(O)CCCC#CCCCC(=O)O | > 100 µM (inactive) | > 100 µM | > 100 µM (inactive) | > 100 µM (inactive) | > 100 µM (inactive) | > 100 µM (inactive) | > 100 µM (inactive) | > 100 µM (inactive) | > 100 µM (inactive) | > 100 µM (inactive) | > 100 µM (inactive) | > 100 µM (inactive) | > 100 µM (inactive) | > 100 µM (inactive) | > 100 µM (inactive) | > 100 µM (inactive) | 43.5 µM (inactive) | > 100 µM (inactive) | > 100 µM (inactive) | > 100 µM (inactive)
3 | O=CC(O)C(O)C(O)C(O)COC(=O)NCCCCC(=O)C(F)(F)C(F)(F)C(F)(F)C(F)(F)C(F)(F)C(F)(F)C(F)(F)F (stereo unspecified) | 19.1 µM (inactive) | 50.2 µM | 18.3 µM (inactive) | 23.7 µM (inactive) | 24.5 µM (inactive) | > 10 µM (inactive) | 47.6 µM (inactive) | 23.7 µM (inactive) | 23.2 µM (inactive) | 18 µM (inactive) | – | 30.2 µM (inactive) | 24.8 µM (inactive) | 14.3 µM (inactive) | 32.9 µM (inactive) | 27.8 µM (inactive) | 22.9 µM (inactive) | 19.8 µM (inactive) | 28.2 µM (inactive) | 43.7 µM (inactive)
4 | C=CCCC1(CCP(=O)(c2ccccc2)c2ccccc2)OCCO1 | > 100 µM (inactive) | > 100 µM | > 100 µM (inactive) | > 100 µM (inactive) | > 100 µM (inactive) | > 100 µM (inactive) | > 100 µM (inactive) | > 100 µM (inactive) | > 100 µM (inactive) | > 100 µM (inactive) | > 100 µM (inactive) | > 100 µM (inactive) | > 100 µM (inactive) | > 100 µM (inactive) | > 100 µM (inactive) | > 100 µM (inactive) | > 100 µM (inactive) | > 100 µM (inactive) | > 100 µM (inactive) | > 100 µM (inactive)
5 | C[C@]12Cc3cnn(-c4ccc(F)cc4)c3NC1CC[C@@H]1C2CC[C@@]2(C)C1CC[C@@H]2O (stereo partly specified) | 4.32 µM (inactive) | – | 1.16 µM (inactive) | 2.65 µM (inactive) | 5.41 µM (inactive) | 5.24 µM (inactive) | 5.42 µM (inactive) | 11.1 µM (inactive) | 1.62 µM (inactive) | 3.94 µM (inactive) | 12.5 µM (inactive) | 2.31 µM (inactive) | 10.1 µM (inactive) | 10 µM (inactive) | 2.85 µM (inactive) | 10.2 µM (inactive) | 2.76 µM (inactive) | 1.55 µM (inactive) | 0.537 µM (active) | 14.1 µM (inactive)
6 | Brc1ccc(CCNCCN2CCCCC2)cc1 | 15.7 µM (inactive) | 18.1 µM | 33.6 µM (inactive) | 8.07 µM (inactive) | 14.5 µM (inactive) | 14.8 µM (inactive) | 35.6 µM (inactive) | 15.6 µM (inactive) | 18.3 µM (inactive) | 12.1 µM (inactive) | 16.5 µM (inactive) | 20.6 µM (inactive) | 15.5 µM (inactive) | 15.6 µM (inactive) | 16.4 µM (inactive) | 10.7 µM (inactive) | 12.8 µM (inactive) | 10.9 µM (inactive) | > 100 µM (inactive) | 11.8 µM (inactive)
7 | COc1c(C)c(C/C=C(\C)CC/C=C(\C)CCC=C(C)C)c(OC)c(OC)c1OC | 44.2 µM (inactive) | > 100 µM | 44 µM (inactive) | 74.5 µM (inactive) | 54.6 µM (inactive) | 64.9 µM (inactive) | > 100 µM (inactive) | > 100 µM (inactive) | 75 µM (inactive) | > 100 µM (inactive) | > 100 µM (inactive) | > 100 µM (inactive) | > 100 µM (inactive) | > 100 µM (inactive) | > 100 µM (inactive) | 76.9 µM (inactive) | > 100 µM (inactive) | > 100 µM (inactive) | 66.4 µM (inactive) | –
8 | Cc1cc(C)c(-c2no/c(=N\S(=O)(=O)c3ccc(Cl)cc3)o2)c(C)c1 | 16.4 µM (inactive) | > 100 µM | > 100 µM (inactive) | 23.1 µM (inactive) | > 100 µM (inactive) | 31.1 µM (inactive) | > 100 µM (inactive) | > 100 µM (inactive) | > 100 µM (inactive) | 51.1 µM (inactive) | > 100 µM (inactive) | > 100 µM (inactive) | > 100 µM (inactive) | > 100 µM (inactive) | > 100 µM (inactive) | > 100 µM (inactive) | > 100 µM (inactive) | > 100 µM (inactive) | 24.7 µM (inactive) | > 100 µM (inactive)
9 | COc1nc(C)nc2c1ncn2Cc1ccccc1 | 58.9 µM (inactive) | > 100 µM | > 100 µM (inactive) | > 100 µM (inactive) | > 100 µM (inactive) | > 100 µM (inactive) | > 100 µM (inactive) | > 100 µM (inactive) | > 100 µM (inactive) | > 100 µM (inactive) | > 100 µM (inactive) | > 100 µM (inactive) | 57.3 µM (inactive) | > 100 µM (inactive) | > 100 µM (inactive) | > 100 µM (inactive) | > 100 µM (inactive) | > 100 µM (inactive) | > 100 µM (inactive) | > 100 µM (inactive)
10 | COc1ccc(C2C3=C(COC3=O)OC(C)(C)Oc3cc4c(cc32)OCO4)cc1 (stereo unspecified) | > 64.4 µM (inactive) | 23.7 µM | 36.6 µM (inactive) | 20.4 µM (inactive) | 40.5 µM (inactive) | 38.3 µM (inactive) | 32.5 µM (inactive) | 24.2 µM (inactive) | 35.2 µM (inactive) | 25.4 µM (inactive) | 55.8 µM (inactive) | 40 µM (inactive) | 44.6 µM (inactive) | 15.1 µM (inactive) | 34.4 µM (inactive) | 2.96 µM (inactive) | 9.46 µM (inactive) | 24.2 µM (inactive) | 43.1 µM (inactive) | 43.1 µM (inactive)
11 | O=C(N/N=C\c1ccc(Cl)cc1)Nc1cccc2ccccc12 | 3.4 µM (inactive) | 3.36 µM | 3.01 µM (inactive) | 4.45 µM (inactive) | 2.4 µM (inactive) | 8.75 µM (inactive) | 5.57 µM (inactive) | 7.16 µM (inactive) | 2.52 µM (inactive) | 3.04 µM (inactive) | 5.2 µM (inactive) | 2.37 µM (inactive) | 6.44 µM (inactive) | 5.97 µM (inactive) | 9.71 µM (inactive) | 2.21 µM (inactive) | 2.4 µM (inactive) | 5.41 µM (inactive) | 3.16 µM (inactive) | 22.5 µM (inactive)
